The term IC50 denotes the concentration that inhibits the measured activity by half.

Series [1] has as its system HEY/NIH microtissues (HEY-GFP ovarian cancer cells + NIH3T3 fibroblasts). In kind it is cell-based, human. Conditions: read-out: IC50 ATP; HEY/NIH spheroids, ATP content at treatment day 7.
The subject of series [2] is SKOV/NIH microtissues (SKOV-3 ovarian cancer cells + NIH3T3 fibroblasts). In kind it is cell-based, human. The settings on record: read-out: IC50 ATP; SKOV/NIH spheroids, ATP content at treatment day 7.
Series [3] deals with PANC/NIH microtissues (PANC-1 pancreatic cancer cells + NIH3T3 fibroblasts). In kind it is cell-based, human. The settings on record: read-out: IC50 ATP; PANC/NIH spheroids, ATP content at treatment day 7.
Series [4] has as its system NIH3T3 fibroblasts within HEY/NIH microtissues. The settings on record: day 3.
In a further series the test system is HEY/NIH3T3 microtissues. The series can be described thus: Microtissue size over time, HEY/NIH microtissues. The settings on record: HEY/NIH3T3, % maximal response at 20 μM. In kind it is cell-based, human.
Series [5] relates to NIH3T3 fibroblasts within SKOV/NIH microtissues.
For series [6], the system named is NIH3T3 fibroblasts within PANC/NIH microtissues. In kind it is cell-based, mouse. The settings on record: PANC1/NIH, day 3 (acute toxicity).

On to `C=CC(=O)Nc1cc2c(Nc3ccc(F)c(Cl)c3)ncnc2cc1C#CC(C)(C)N1CCN(C)CC1` [AV-412], for which the IC50 in series [1] came out at 1290 nM; in series [2] it was 80 nM; in series [3] it was 2440 nM.
For the molecule `COC(=O)[C@]12CCC(C)(C)C[C@H]1[C@H]1C(=O)C=C3[C@@]4(C)C=C(C#N)C(=O)C(C)(C)[C@@H]4CC[C@@]3(C)[C@]1(C)CC2` [Bardoxolone methyl], in series [3], the concentration for half-maximal inhibition (IC50) was determined as 1340 nM.
`CC(C)C[C@H](NC(=O)[C@H](CCc1ccccc1)NC(=O)CN1CCOCC1)C(=O)N[C@@H](Cc1ccccc1)C(=O)N[C@@H](CC(C)C)C(=O)[C@@]1(C)CO1` [Carfilzomib]: the “therapeutic window, ratio of adverse to therapeutic effect” value in series [4] stood at 578 fold.
With `O=C1C(Cl)=C(NCCN2CCOCC2)C(=O)c2ncccc21` [DA-3003-1], the 50% inhibitory concentration (IC50) in series [1] is 7360 nM.
For the molecule `Cc1nc(Nc2ncc(C(=O)Nc3c(C)cccc3Cl)s2)cc(N2CCN(CCO)CC2)n1` [Dasatinib], in the series on HEY/NIH3T3 microtissues, the “effect on tumor size early in the treatment” value (“effect on tumor size early” for short) is reported as “reduce tumor size”.
As to `CNC(=O)[C@H](Cc1c[nH]c2ccccc12)NC(=O)[C@@H](CC(=O)NO)CC(C)C` [GM-6001], the IC50 in series [2] worked out at 3860 nM; in series [3] it was 9610 nM.
Regarding `CC1=C(C(=O)Nc2cc3cn[nH]c3cc2F)C(c2ccc(Cl)cc2F)N=C(c2ccnc(Cl)c2)N1` (centres unmarked) [GSK-25], the results for the IC50 in series [1], in series [2] and in series [3] were 6100 nM, 4830 nM and 9380 nM, respectively.
As to `CN(C)CCCN=c1c2ccccc2n(C)c2[nH]c(=O)n(C)c(=O)c12` [HLI-373989], in series [1], the half-maximal inhibitory concentration (IC50) was determined as 3760 nM.
The same measure, in the same setting: the value for `CSc1cccc(Nc2ncc3cc(-c4c(Cl)cccc4Cl)c(=O)n(C)c3n2)c1` [PD-173955] was 479 nM.
Consider `Cc1ccc(/C=N/NC(=O)c2ccccc2Oc2ccccc2)o1` [PNU-74654], for which, in series [2], the IC50 worked out at 2840 nM.
Take `C/C=C1\NC(=O)[C@H]2CSSCC/C=C/[C@H](CC(=O)N[C@H](C(C)C)C(=O)N2)OC(=O)[C@H](C(C)C)NC1=O` [Romidepsin]: the “viability of the stromal cells” value in series [5] is “significantly lowered the viability of the stromal cells”.
`O=C(O)C1CCCN(CCC=C(c2ccccc2)c2ccccc2)C1` (centres unmarked) [SK&F-89976A]: the IC50 in series [1] came to 15300 nM.
As to `Cc1ccc(-c2ncn(-c3ccc(Nc4nccc(-c5cccc(N6CCOCC6)c5)n4)cc3)n2)cn1` [SR-3306], the IC50 in series [1] was 58 nM; in series [2] it was 13 nM; in series [3] it was 22 nM.
Consider `Cn1c(=O)c(F)c(Nc2ccc(I)cc2F)c2c(=O)n(C[C@@H](O)CO)cnc21` [TAK-733], for which the “effect on tumor size early” value with HEY/NIH3T3 microtissues is on record as “reduce tumor size”.
As to `Nc1ccc(-c2ccc3ncc4ccc(=O)n(-c5cccc(C(F)(F)F)c5)c4c3c2)cn1` [Torin-2], the half-maximal inhibitory concentration (IC50) in series [1] came to 27 nM; in series [2] it was 2 nM; in series [3] it was 1 nM. Also, the “therapeutic window, ratio of adverse to therapeutic effect” value in series [6] was 5,524 fold.
On to `c1cncc(CN2CCC(n3ncc4c(N5CCOCC5)nc(-c5ccc6[nH]ccc6c5)nc43)CC2)c1` [WAY-600], for which the IC50 in series [1] turned out to be 1680 nM; in series [2], 507 nM; in series [3], 7380 nM. Besides, the “effect on tumor size early” value in the series with HEY/NIH3T3 microtissues is “reduce tumor size”.

The record behind these values is article PMC11271247 (SLAS discovery : advancing life sciences R & D, 2019).
